From patent EP0745595A1, “3-(3-Aryloxyphenyl)-1-(substituted methyl)-s-triazine-2,4,6-oxo or thiotrione herbicidal agents” (American Cyanamid Company, priority 1995, dated 1996)

Tests used:
Assay type in all cases: in vivo
SAGITTARIA PYGMAEA, L. = test: Preemergence weed control under flooded paddy conditions, SAGPY (Arrowhead (Pygmaea)); details: preemergence, 3-4 weeks after treatment
Experimental: (§1) Results of herbicide evaluation are expressed on a rating scale (0-9). The scale is based upon a visual observation of plant stand, vigor, malformation, size, chlorosis and overall plant appearance as compared with a control.
(§2) Preemergence herbicidal activity under flooded paddy conditions is determined as follows: plant seeds or propagating organs are planted in the top 0.5 cm of silt loam soil in 32 oz. plastic containers with a diameter of 10.5 cm and no drainage holes. Water is added to these containers and maintained at 1.5 to 3 cm above the soil surface for the duration of the experiment. […] The treated containers are placed on greenhouse benches and cared for according to normal greenhouse procedures.- Three to four weeks after treatment the test is terminated and each container is examined and herbicidal effect rated according to the rating system provided in Example 40. The compounds evaluated are reported by compound number given in Example 40.
(§3) Plant species employed in this example are reported by header abbreviation, common name and scientific name.

[1] = test system: ORYZA SATIVA, L. TEBONNET; test: Rice tolerance to post-transplant applications under flooded paddy conditions, ORYSAT (Rice, Tebonnet); details: post-transplant rice, 3-4 weeks after treatment
Experimental: as §1
The tolerance of transplanted rice to post-transplanted herbicide applications is determined as follows: two ten-day-old rice seedlings (CV. Tebonnet) are transplanted into a silt loam soil in 32 oz. plastic containers with a diameter of 10.5 cm and no drainage holes. After transplanting the containers are flooded and the water level is maintained at 1.5 to 3 cm above the soil surface. […] The treated containers are placed on greenhouse benches, watered such that the water level is maintained as stated above, and cared for according to normal greenhouse procedures. Three to four weeks after treatment the test is terminated and each container is examined and herbicidal effect rated according to the rating system provided in Example 40. The compounds evaluated are reported by compound number given in Example 40.
as §3

[2] = test system: AMBROSIA ARTEMISIIFOLIA, L.; test: Postemergence herbicidal evaluation, AMBEL (Ragweed, Common); details: rated four to five weeks after treatment, averaged
Experimental: (§4) In the tests, seedling plants are grown in jiffy flats for about two weeks. The test compounds are dispersed in 50/50 acetone/water mixtures containing 0.5% TWEEN®20, a polyoxyethylene sorbitan monolaurate surfactant of Atlas Chemical Industries, […] to the plants through a spray nozzle operating at 40 psi for a predetermined time. After spraying, the plants are placed on greenhouse benches and are cared for in the usual manner, commensurate with conventional greenhouse practices. From four to five weeks after treatment, the seedling plants are examined and rated according to the rating system set forth below. Where more than one test is involved for a given compound, the data are averaged.
(§5) Plant species employed in these evaluations are reported by header abbreviation, common name and scientific name.
as §1

[…], PRESL. = Preemergence weed control under flooded paddy conditions, MOOVA (Monochoria); details: preemergence, 3-4 weeks after treatment
Experimental: as §1
Preemergence herbicidal activity under flooded paddy conditions is determined as follows: plant seeds or propagating organs are planted in the top 0.5 cm of silt loam soil in 32 oz. plastic containers with a diameter of 10.5 cm and no drainage holes. Water is added to these containers and maintained at 1.5 to 3 cm above the soil surface for the duration of the experiment. The test compounds are applied as aqueous/acetone mixtures 50/50 v/v pipetted directly into the flood water to give the equivalent of about 0.5, 0.25, 0.125 and 0.063 kg/ha of active ingredient. The treated containers are placed on greenhouse benches and cared for according to normal greenhouse procedures.- Three to four weeks after treatment the test is terminated and each container is examined and herbicidal effect rated according to the rating system provided in Example 40. The compounds evaluated are reported by compound number given in Example 40.
as §3

[3] = test system: ABUTILON THEOPHRASTI, MEDIC.; test: Postemergence herbicidal evaluation, ABUTH (Velvetleaf); details: rated four to five weeks after treatment, averaged
Experimental: as §4, §5, §1

CHENOPODIUM ALBUM, L. [4] = test: Preemergence herbicidal evaluation, CHEAL (Lambsquarters, Common); details: rated four to five weeks after treatment
Excerpt: as §1
The preemergence herbicidal activity of the test compounds of the present invention is exemplified by the following tests in which the seeds of a variety of monocotyledonous and dicotyledonous plants are separately mixed with potting soil and planted on top of approximately one inch of soil in separate pint cups. […] The treated cups are then placed on greenhouse benches, watered and cared for in accordance with conventional greenhouse procedures. From four to five weeks after treatment, the tests are terminated and each cup is examined and rated according to the rating system provided in Example 40.
The compounds evaluated are reported by compound number given in Example 40.

CASSIA OBTUSIFOLIA, L. = test: Postemergence herbicidal evaluation, CASOB (Sicklepod); details: rated four to five weeks after treatment, averaged
Experimental: (§6) In the tests, seedling plants are grown in jiffy flats for about two weeks. The test compounds are dispersed in 50/50 acetone/water mixtures containing 0.5% TWEEN®20, a polyoxyethylene sorbitan monolaurate surfactant of Atlas Chemical Industries, in sufficient quantities to provide the equivalent of about 0.125 kg to 0.500 kg per hectare of active compound when applied to the plants through a spray nozzle operating at 40 psi for a predetermined time. After spraying, the plants are placed on greenhouse benches and are cared for in the usual manner, commensurate with conventional greenhouse practices. From four to five weeks after treatment, the seedling plants are examined and rated according to the rating system set forth below. Where more than one test is involved for a given compound, the data are averaged.
as §5, §1

[5] = test system: CYPERUS SEROTINUS, ROTTB.; test: Preemergence weed control under flooded paddy conditions, CYPSE (Flatsedge); details: preemergence, 3-4 weeks after treatment
Experimental: as §1, §2, §3

GALIUM APARINE = test: Postemergence herbicidal evaluation, GALAP (Galium); details: rated four to five weeks after treatment, averaged
Experimental: as §6, §5, §1

IPOMOEA SPP. = test: Postemergence herbicidal evaluation, IPOSS (Morningglory spp.); details: rated four to five weeks after treatment, averaged
Experimental: as §4, §5, §1

[6] = test system: ECHINOCHLOA ORYZOIDES (ARD.)FRITSCH; test: Preemergence weed control under flooded paddy conditions, ECHORC (Watergrass (Calif.)); details: preemergence, 3-4 weeks after treatment
Experimental: as §1, §2, §3

CHENOPODIUM ALBUM, L. [7] = test: Postemergence herbicidal evaluation, CHEAL (Lambsquarters, Common); details: rated four to five weeks after treatment, averaged
Experimental: as §4, §5, §1

Row | SMILES | Herbicidal effect rating, SAGPY (SAGITTARIA PYGMAEA, L.; 0.063 kg/ha) | Herbicidal effect rating, SAGPY (SAGITTARIA PYGMAEA, L.; 0.125 kg/ha) | Herbicidal effect rating, SAGPY (SAGITTARIA PYGMAEA, L.; 0.250 kg/ha) | Herbicidal effect rating, SAGPY (SAGITTARIA PYGMAEA, L.; 0.500 kg/ha) | Herbicidal effect rating, ORYSAT ([1]; 0.063 kg/ha) | Herbicidal effect rating, ORYSAT ([1]; 0.125 kg/ha) | Herbicidal effect rating, ORYSAT ([1]; 0.250 kg/ha) | Herbicidal effect rating, ORYSAT ([1]; 0.500 kg/ha) | Herbicidal effect rating, MOOVA ([…], PRESL.; 0.063 kg/ha) | Herbicidal effect rating, MOOVA ([…], PRESL.; 0.125 kg/ha) | Herbicidal effect rating, MOOVA ([…], PRESL.; 0.250 kg/ha) | Herbicidal effect rating, MOOVA ([…], PRESL.; 0.500 kg/ha) | ABUTH, herbicide rating (0-9) ([3]; Rate 0.125 kg/ha) | ABUTH, herbicide rating (0-9) ([3]; Rate 0.250 kg/ha) | ABUTH, herbicide rating (0-9) ([3]; Rate 0.500 kg/ha) | CASOB, herbicide rating (0-9) (CASSIA OBTUSIFOLIA, L.; Rate 0.125 kg/ha) | CASOB, herbicide rating (0-9) (CASSIA OBTUSIFOLIA, L.; Rate 0.250 kg/ha) | CASOB, herbicide rating (0-9) (CASSIA OBTUSIFOLIA, L.; Rate 0.500 kg/ha) | GALAP, herbicide rating (0-9) (GALIUM APARINE; Rate 0.125 kg/ha) | GALAP, herbicide rating (0-9) (GALIUM APARINE; Rate 0.250 kg/ha) | also measured
1 | COC(=O)Cn1c(=O)n(C)c(=O)n(-c2cc(Oc3ccc(Cl)cc3F)ccc2[N+](=O)[O-])c1=O [Compound 23, Methyl 3-[5-(4-chloro-2-fluorophenoxy)-2-nitrophenyl]tetrahydro-5-methyl-2,4,6-trioxo-s-triazine-1(2H)-acetate] | 0.0 | 0.0 | 0.0 | 0.0 | 2.0 | 2.0 | 3.0 | 3.0 | – | – | – | – | – | – | – | – | – | – | – | – | –
2 | Cn1c(=O)n(CC(=O)O)c(=O)n(-c2cc(Oc3c(F)cc(C(F)(F)F)cc3Cl)ccc2[N+](=O)[O-])c1=O [Compound 15, 3-{5-[(2-Chloro-α,α,α,6-tetrafluoro-p-tolyl)oxy]-2-nitrophenyl}tetrahydro-5-methyl-2,4,6-trioxo-s-triazine-1(2H)-acetic acid] | – | – | – | – | 4.5 | 4.5 | 7.0 | 7.0 | 9.0 | 9.0 | 9.0 | 9.0 | 9.0 | 9.0 | 9.0 | 9.0 | 9.0 | 9.0 | – | – | AMBEL, herbicide rating (0-9) ([2]; Rate 0.125 kg/ha): 9.0; AMBEL, herbicide rating (0-9) ([2]; Rate 0.250 kg/ha): 9.0; AMBEL, herbicide rating (0-9) ([2]; Rate 0.500 kg/ha): 9.0; CHEAL herbicidal rating (CHENOPODIUM ALBUM, L. [4]; Rate 0.125 kg/ha): 9.0; CHEAL herbicidal rating (CHENOPODIUM ALBUM, L. [4]; Rate 0.250 kg/ha): 9.0; CHEAL herbicidal rating (CHENOPODIUM ALBUM, L. [4]; Rate 0.500 kg/ha): 9.0
3 | COC(=O)Cn1c(=O)n(C)c(=O)n(-c2cc(Oc3ccc(Cl)c(Cl)c3Cl)ccc2[N+](=O)[O-])c1=O [Compound 26, Methyl 3-[2-nitro-5-(2,3,4-trichlorophen-oxy)phenyl]tetrahydro-5-methyl-2,4,6-tri-oxo-s-triazine-1(2H)-acetate] | 0.0 | 0.0 | 0.0 | 0.0 | 2.0 | 2.0 | 3.0 | 3.0 | – | – | – | – | – | – | – | – | – | – | – | – | –
4 | COC(=O)Cn1c(=O)n(CC(=O)OC)c(=O)n(-c2cc(Oc3ccc(Cl)cc3Cl)ccc2[N+](=O)[O-])c1=O [Compound 19, Dimethyl 5-[5-(2,4-dichlorophenoxy)-2-nitro-phenyl]dihydro-2,4,6-trioxo-s-trizine-1,3-(2H,4H)-diacetate] | 0.0 | 0.0 | 0.0 | 0.0 | 1.0 | 1.0 | 1.0 | 1.0 | 9.0 | 9.0 | 9.0 | 9.0 | 9.0 | 9.0 | 9.0 | 9.0 | 9.0 | 9.0 | 9.0 | 9.0 | Herbicidal effect rating, CYPSE ([5]; 0.063 kg/ha): 0.0; Herbicidal effect rating, CYPSE ([5]; 0.125 kg/ha): 0.0; Herbicidal effect rating, CYPSE ([5]; 0.250 kg/ha): 0.0; Herbicidal effect rating, CYPSE ([5]; 0.500 kg/ha): 0.0; GALAP, herbicide rating (0-9) (GALIUM APARINE; Rate 0.500 kg/ha): 9.0
5 | COC(=O)Cn1c(=O)n(C)c(=O)n(-c2cc(Oc3ccc(Cl)c(C)c3Cl)ccc2[N+](=O)[O-])c1=O [Compound 20, Methyl 3-{5-[(2,4-dichloro-m-tolyl)oxy]-2-nitrophenyl}tetrahydro-5-methyl-2,4,6-trioxo-s-triazine-1(2H)-acetate] | 0.0 | 0.0 | 0.0 | 0.0 | 2.0 | 3.0 | 3.0 | 4.0 | – | – | – | – | 9.0 | 9.0 | 9.0 | – | – | – | – | – | IPOSS, herbicide rating (0-9) (IPOMOEA SPP.; Rate 0.125 kg/ha): 9.0; IPOSS, herbicide rating (0-9) (IPOMOEA SPP.; Rate 0.250 kg/ha): 9.0; IPOSS, herbicide rating (0-9) (IPOMOEA SPP.; Rate 0.500 kg/ha): 9.0
6 | COC(=O)Cn1c(=O)n(C)c(=O)n(-c2cc(Oc3ccc(Cl)cc3Cl)ccc2[N+](=O)[O-])c1=O [Compound 18, Methyl 3-[5-(2,4-dichlorophenoxy)-2-nitrophenyl]tetrahydro-5-methyl-2,4,6-trioxo-s-trizine-1(2H)-acetate] | – | – | – | – | 2.0 | 3.0 | 3.0 | 4.0 | 9.0 | 9.0 | 9.0 | 9.0 | 9.0 | 9.0 | 9.0 | 9.0 | 9.0 | 9.0 | 9.0 | 9.0 | Herbicidal effect rating, ECHORC ([6]; 0.063 kg/ha): 9.0; Herbicidal effect rating, ECHORC ([6]; 0.125 kg/ha): 9.0; Herbicidal effect rating, ECHORC ([6]; 0.250 kg/ha): 9.0; Herbicidal effect rating, ECHORC ([6]; 0.500 kg/ha): 9.0; GALAP, herbicide rating (0-9) (GALIUM APARINE; Rate 0.500 kg/ha): 9.0; IPOSS, herbicide rating (0-9) (IPOMOEA SPP.; Rate 0.125 kg/ha): 9.0; IPOSS, herbicide rating (0-9) (IPOMOEA SPP.; Rate 0.250 kg/ha): 9.0; IPOSS, herbicide rating (0-9) (IPOMOEA SPP.; Rate 0.500 kg/ha): 9.0; CHEAL, herbicide rating (0-9) (CHENOPODIUM ALBUM, L. [7]; Rate 0.125 kg/ha): 9.0; CHEAL, herbicide rating (0-9) (CHENOPODIUM ALBUM, L. [7]; Rate 0.250 kg/ha): 9.0; CHEAL, herbicide rating (0-9) (CHENOPODIUM ALBUM, L. [7]; Rate 0.500 kg/ha): 9.0
